According to US20170105926A1, “COMPOSITION COMPRISING EXTRACT OF ALPINE WORMWOOD” (AMOREPACIFIC CORPORATION, priority 2014, published 2017):

Experiments:
Type in all cases: cell-based, human
endothelin 1 (EDN1) = assay: Endothelin 1 ELISA assay of culture medium; settings: melanocytes (KaMC) medium, 2 nM substance P; control group = 100%
Experimental: When the density of the melanocytes on the 6-well plate reached about 80% (˜80% confluence), they were incubated for a total of 5 days with 2 nM of stress-inducing substance P (Bachem Fechemikalien, Bubendorf, Switzerland) or the alpine wormwood (Artemisia umbelliformis) extract of Example 1 of different concentrations (0, 0.1, 1, 2 and 5 ppm). The cells not treated with substance P or the alpine wormwood (Artemisia umbelliformis) extract of Example 1 were used as a control group.
The culture medium of the cells treated with the extract in (2) of Test Example 1 were recovered and the amount of endothelin 1 (EDN1) comprised in the medium was measured at 450 nm using the human total endothelin ELISA kit (MyBioSource, USA).
Endothelin content (%)=(Absorbance/Total protein content)×100 [Equation 1]

EDN1 (endothelin 1) gene = assay: Gene expression assay by real-time PCR (EDN1); settings: melanocytes (KaMC), 2 nM substance P, 5 days; control group = 1
Experimental: (§1) Melanocytes (KaMC) (KCTC 12015BP) deposited in the Korean Collection for Type Culture (KCTC) were cultured in M-254 medium (Gibco BRL, NY, USA) supplemented with Human Melanocyte Growth Supplement (HMGS; Gibco BRL, NY, USA) on a 6-well plate, while changing the medium every other day, in a 5% CO2 incubator at 37° C. until the cells occupied 95% of the plate area (95% confluence). […] The cells not treated with substance P or the alpine wormwood (Artemisia umbelliformis) extract of Example 1 were used as a control group. After removing the medium form the melanocytes cultured on the 6-well plate, the cells were washed 2 times with cold phosphate-buffered saline (PBS) and the remaining water was completely removed. […] 1 μL of the RNA was quantified using Synergy II (Biotek, USA). […] After adding 10 μL of Taqman Gene Expression Master Mix (Life Technologies, USA) and 1 μL of Assays-on-DemandTM (Life Technologies, USA) of NK1R (ACCESSION: NM_001058) and EDN1 (ACCESSION: NM_001168319) genes to 9 μL of the diluted cDNA, the expression of the genes was analyzed by relative quantification using 7500 Fast Real-Time PCR (Life Technologies, USA) with glyceraldehyde 3-phosphate dehydrogenase (GAPDH, ACCESSION: NM001256799) as a control gene. […]

[1] = test system: NK1R (neurokinin 1 receptor) gene; assay: Gene expression assay by real-time PCR (NK1R); settings: melanocytes (KaMC), 2 nM substance P, 5 days; control group = 1
Experimental: as §1

CSCC[C@H](NC(=O)[C@H](CC(C)C)NC(=O)CNC(=O)[C@H](Cc1ccccc1)NC(=O)[C@H](Cc1ccccc1)NC(=O)[C@H](CCC(N)=O)NC(=O)[C@H](CCC(N)=O)NC(=O)[C@@H]1CCCN1C(=O)[C@H](CCCCN)NC(=O)[C@@H]1CCCN1C(=O)[C@@H](N)CCCN=C(N)N)C(N)=O [substance P]
content of endothelin 1 (absorbance/total protein content x 100) (endothelin 1 (EDN1)): 124%
expression of the EDN1 gene (relative quantification vs GAPDH) (EDN1 (endothelin 1) gene): 3.6
expression of the NK1R gene (relative quantification vs GAPDH) [1]: 4.2
